From paper PMC8745332, “Synthesis, Molecular Docking and Biological Characterization of Pyrazine Linked 2-Aminobenzamides as New Class I Selective Histone Deacetylase (HDAC) Inhibitors with Anti-Leukemic Activity” (International Journal of Molecular Sciences, 2021)
Like-named read-outs stand apart in the source and are kept apart here.

Legend:
[1] = target: T1, human HDAC7 (Homo sapiens, UniProt Q8WUI4); experiment: HDAC7 dose response, substrate Abz-SRGGK(thio-TFA)FFRR-NH2; type: biochemical
T1 construct: made in house
T1 sequence (Q8WUI4 1-952): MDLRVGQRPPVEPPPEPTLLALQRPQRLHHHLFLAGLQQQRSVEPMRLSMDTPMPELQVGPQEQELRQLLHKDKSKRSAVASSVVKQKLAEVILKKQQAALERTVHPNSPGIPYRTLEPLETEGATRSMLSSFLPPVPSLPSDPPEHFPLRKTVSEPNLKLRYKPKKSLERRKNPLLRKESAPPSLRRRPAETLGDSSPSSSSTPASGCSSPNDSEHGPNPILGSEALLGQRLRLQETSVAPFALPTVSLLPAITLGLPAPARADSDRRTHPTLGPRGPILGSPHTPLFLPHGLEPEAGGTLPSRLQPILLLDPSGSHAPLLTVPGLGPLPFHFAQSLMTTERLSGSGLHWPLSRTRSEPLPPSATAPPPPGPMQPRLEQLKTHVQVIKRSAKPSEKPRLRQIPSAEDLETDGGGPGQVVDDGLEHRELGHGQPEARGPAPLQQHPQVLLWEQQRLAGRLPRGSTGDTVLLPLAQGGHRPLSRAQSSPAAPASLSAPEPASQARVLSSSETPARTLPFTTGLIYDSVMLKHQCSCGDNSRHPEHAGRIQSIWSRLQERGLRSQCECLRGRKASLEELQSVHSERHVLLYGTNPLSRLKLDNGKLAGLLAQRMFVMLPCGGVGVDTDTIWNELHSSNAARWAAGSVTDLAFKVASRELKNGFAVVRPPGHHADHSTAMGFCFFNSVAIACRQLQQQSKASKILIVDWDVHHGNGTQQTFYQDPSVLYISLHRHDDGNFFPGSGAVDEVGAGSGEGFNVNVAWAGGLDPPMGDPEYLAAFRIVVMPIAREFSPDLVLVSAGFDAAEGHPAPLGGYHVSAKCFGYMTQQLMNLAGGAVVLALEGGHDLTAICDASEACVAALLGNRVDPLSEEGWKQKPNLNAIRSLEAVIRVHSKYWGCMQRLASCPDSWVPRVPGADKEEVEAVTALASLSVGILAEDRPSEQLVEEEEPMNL
Protocol: (§1) Recombinant human HDAC1, HDAC2, and HDAC3/NCOR1 were purchased from ENZO Life Sciences AG (Lausen, CH). Recombinant human HDAC 4, HDAC5, HDAC7, HDAC9 and HDAC11 were produced by Barinka lab in Prague, as described before. Recombinant human HDAC8 was produced by Romier et al. (IGBMC, Univ. Strasbourg), as described in [55].
(§2) The determination of dose response curves for HDAC4, 5, 7 and 9 was performed as previously described with compound 4 as substrate (Abz-SRGGK(thio-TFA)FFRR-NH2). The substrate concentration was 50 µM and the enzyme concentration was 10 nM for HDAC4 and HDAC5, 5 nM for HDAC7 and 20 nM for HDAC9. HDAC11 inhibition assay was performed as described before. The fluorescence intensity was recorded with an Envision 2104 Multilabel Plate Reader (PerkinElmer, Waltham, MA) with an excitation wavelength of 330 ± 75 nm and an emission wavelength of 430 ± 8 nm.

[2] = target: T2, human HDAC5 (Homo sapiens, UniProt Q9UQL6); experiment: HDAC5 dose response, substrate Abz-SRGGK(thio-TFA)FFRR-NH2; type: biochemical
T2 construct: made in house
T2 sequence (Q9UQL6 whole entry): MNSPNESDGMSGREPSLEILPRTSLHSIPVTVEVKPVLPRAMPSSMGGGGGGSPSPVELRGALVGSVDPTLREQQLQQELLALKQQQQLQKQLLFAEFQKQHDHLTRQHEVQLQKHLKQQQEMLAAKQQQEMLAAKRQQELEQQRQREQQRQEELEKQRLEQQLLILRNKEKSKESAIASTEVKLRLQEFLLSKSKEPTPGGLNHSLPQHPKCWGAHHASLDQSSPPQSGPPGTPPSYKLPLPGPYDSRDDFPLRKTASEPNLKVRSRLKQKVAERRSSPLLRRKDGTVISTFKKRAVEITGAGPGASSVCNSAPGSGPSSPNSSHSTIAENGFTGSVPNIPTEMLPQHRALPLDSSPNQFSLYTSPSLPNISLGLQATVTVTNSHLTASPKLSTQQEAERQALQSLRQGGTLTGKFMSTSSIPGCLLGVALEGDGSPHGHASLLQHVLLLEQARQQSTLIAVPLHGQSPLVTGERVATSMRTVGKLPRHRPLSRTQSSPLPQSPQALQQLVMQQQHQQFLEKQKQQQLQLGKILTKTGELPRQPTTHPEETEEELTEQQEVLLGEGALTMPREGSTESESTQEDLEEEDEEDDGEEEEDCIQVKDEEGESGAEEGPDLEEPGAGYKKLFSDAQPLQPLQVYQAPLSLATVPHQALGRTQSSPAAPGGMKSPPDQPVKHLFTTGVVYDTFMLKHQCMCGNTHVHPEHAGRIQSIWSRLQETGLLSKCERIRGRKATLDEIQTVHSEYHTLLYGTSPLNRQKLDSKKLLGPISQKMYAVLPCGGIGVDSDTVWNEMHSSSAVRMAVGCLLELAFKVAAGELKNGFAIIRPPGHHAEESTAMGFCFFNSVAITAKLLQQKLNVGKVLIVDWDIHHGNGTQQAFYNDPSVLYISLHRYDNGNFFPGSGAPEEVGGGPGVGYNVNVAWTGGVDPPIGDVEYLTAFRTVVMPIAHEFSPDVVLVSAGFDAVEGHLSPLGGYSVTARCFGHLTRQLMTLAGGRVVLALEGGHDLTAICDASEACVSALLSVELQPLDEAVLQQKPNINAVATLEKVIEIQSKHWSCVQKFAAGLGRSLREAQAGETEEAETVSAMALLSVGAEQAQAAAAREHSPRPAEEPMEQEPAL
Protocol: as §1, §2

[3] = test system: MOLM-13 cells; experiment: Apoptosis in MOLM-13 cells, annexin-V/PI flow cytometry; type: cell-based, human; conditions: for IC50: Homo sapiens
Protocol: We measured the induction of early (increased exposure of phosphatidylserine on the cell surface and therefore positive staining for annexin-V-FITC) and late apoptosis (positivity for annexin-V and accumulation of propidium iodide, PI) by flow cytometry.
(§3) All leukemic cells were kept in RPMI-1640 medium supplemented with 10% FBS and 1%penicillin/streptomycin (Sigma-Aldrich, Taufkirchen, Germany) under standard culture conditions at 37 °C and a 5% CO2 humidified atmosphere. Cells were authenticated as mentioned by us.

[4] = target: T3, human HDAC9 (Homo sapiens, UniProt Q9UKV0); experiment: HDAC9 dose response, substrate Abz-SRGGK(thio-TFA)FFRR-NH2; type: biochemical
T3 construct: made in house
T3 sequence (Q9UKV0 whole entry): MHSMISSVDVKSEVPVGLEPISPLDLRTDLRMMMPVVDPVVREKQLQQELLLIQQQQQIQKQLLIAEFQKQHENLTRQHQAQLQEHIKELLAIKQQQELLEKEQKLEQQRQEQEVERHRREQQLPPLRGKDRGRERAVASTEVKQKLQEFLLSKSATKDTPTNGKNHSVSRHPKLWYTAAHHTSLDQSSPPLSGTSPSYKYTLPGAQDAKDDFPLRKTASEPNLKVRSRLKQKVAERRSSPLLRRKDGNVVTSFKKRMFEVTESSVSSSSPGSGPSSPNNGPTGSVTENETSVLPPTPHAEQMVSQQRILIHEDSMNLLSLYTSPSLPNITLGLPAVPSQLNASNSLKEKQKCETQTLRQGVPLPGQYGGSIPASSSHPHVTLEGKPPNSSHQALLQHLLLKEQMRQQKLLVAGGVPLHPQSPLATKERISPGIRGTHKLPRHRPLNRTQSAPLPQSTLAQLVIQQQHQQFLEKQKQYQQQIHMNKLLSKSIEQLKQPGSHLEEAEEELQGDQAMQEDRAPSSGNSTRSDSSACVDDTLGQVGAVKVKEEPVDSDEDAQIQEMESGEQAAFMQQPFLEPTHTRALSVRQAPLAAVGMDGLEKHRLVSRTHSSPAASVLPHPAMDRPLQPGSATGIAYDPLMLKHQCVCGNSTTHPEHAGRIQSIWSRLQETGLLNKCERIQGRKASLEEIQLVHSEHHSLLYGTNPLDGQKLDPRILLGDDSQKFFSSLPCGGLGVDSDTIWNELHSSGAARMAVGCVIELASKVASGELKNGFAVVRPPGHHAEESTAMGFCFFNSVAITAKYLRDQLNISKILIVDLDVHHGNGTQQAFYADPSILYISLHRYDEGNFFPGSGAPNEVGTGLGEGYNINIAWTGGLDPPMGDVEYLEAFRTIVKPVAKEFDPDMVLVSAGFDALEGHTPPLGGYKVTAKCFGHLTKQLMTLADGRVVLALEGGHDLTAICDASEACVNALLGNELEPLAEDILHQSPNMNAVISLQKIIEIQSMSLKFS
Protocol: as §1, §2

[5] = in vitro; conditions: human, HEK293 cells
Protocol: The cells were incubated for 48 h with the HDACi at a concentration of 50 µM, and cell viability was determined by the Alamar Blue assay.
To determine the cytotoxicity of the developed compounds on the human epithelial kidney, cell line HEK293 was used. HEK293 cells (DSMZ Braunschweig, ACC305) were incubated at 37 °C in a humidified incubator with 5% CO2 in Dulbecco’s Modified Eagle Medium (DMEM) supplemented with 10% FCS and 5 mM glutamine. Cells were seeded out at 1.5 x 10^3 cells per well in a 96-well cell culture plate (TPP, Switzerland). The compounds to be tested were added immediately to the medium at 50 µM. After 24 h, Alamar Blue reagent (Invitrogen, CA) was added according to the manufacturer’s instructions and incubated again for 21 h before samples were analyzed. Detection of viable cells which convert the resazurine reagent into the highly fluorescent resorufin was performed by using a FLUOstarOPTIMA microplate reader (BMG Labtec) with the following filter set: Ex 530 nm/Em 590 nm. Measurements were performed in triplicate and data are means with standard deviation <12%.

[6] = test system: MV4-11 and MOLM-13 cells; experiment: Immunoblot of acetylated histone H3 and cleaved caspase-3; type: cell-based, human; conditions: MV4-11 and MOLM-13 cells, 0.25, 0.5, 1 µM, 24 h
Protocol: (C,D) The same experiments were conducted with MOLM-13 cells. (E) IC50 values were determined for 19f. (F) Immunoblot was done with the stated antibodies and lysates of MV4-11 and MOLM-13 cells that were incubated with the HDACi for 24 h. […] Graphs show representatives of three independent experiments.

[7] = target: T4, human HDAC8 (Homo sapiens, UniProt Q9BY41); experiment: HDAC8 homogenous fluorescence assay with ZMAL substrate; type: biochemical; conditions: read-out: HDAC8 (% Inhib.)
T4 construct: made in house
T4 sequence (Q9BY41 1-377): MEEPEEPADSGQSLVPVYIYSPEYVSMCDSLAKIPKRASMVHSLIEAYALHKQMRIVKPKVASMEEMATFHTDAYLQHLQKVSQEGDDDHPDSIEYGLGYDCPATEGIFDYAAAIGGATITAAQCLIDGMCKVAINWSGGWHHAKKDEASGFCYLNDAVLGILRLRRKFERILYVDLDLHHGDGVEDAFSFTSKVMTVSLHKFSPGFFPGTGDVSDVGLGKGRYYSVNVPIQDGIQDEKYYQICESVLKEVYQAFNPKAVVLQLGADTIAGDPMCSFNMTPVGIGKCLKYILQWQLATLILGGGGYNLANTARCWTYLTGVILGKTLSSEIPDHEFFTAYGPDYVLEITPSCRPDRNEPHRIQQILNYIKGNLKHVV
Protocol: as §1
Fluorescence intensity was measured at an excitation wavelength of 390 nm and an emission wavelength of 460 nm in a microtiter plate reader (BMG Polarstar).

[8] = test system: HEL cells; experiment: Cytotoxicity/apoptosis in HEL cells expressing JAK2V617F, annexin V-FITC/PI flow cytometry; type: cell-based, human
Protocol: (B) Cells were stained with annexin V-FITC/PI and analyzed via flow cytometry. […] IC50 values were determined for 19f. Results represent three independent experiments.
This erythroleukemia cell model carries a mutation in Janus kinase-2 (JAK2V617F) and HDACi are considered as therapeutic options to control the transformation of this disease into AML [53].
as §3

| SMILES | IC50 [1] [µM] | IC50 [2] [µM] | IC50 ([3]; MOLM-13, 48 h, read-out: IC50 (apoptosis, annexin-V/PI)) [nM] | IC50 ([3]; MOLM-13 cells, 24 h, annexin-V/PI, read-out: IC50 for apoptosis induction) [nM] | IC50 ([3]; MOLM-13 cells, after 48 h, read-out: IC50 values for growth inhibition) [nM] | fold higher potency than MS-275 (apoptosis induction) ([3]; MOLM-13 cells, versus MS-275) [fold] | IC50 [4] [µM] | viability at 48 h, 50 µM [5] [%] | accumulation of acetylated histone H3 (immunoblot) [6] | inhibition at 1 µM [7] [%] | apoptosis in HEL cell cultures ([8]; 0.5 µM, 48 h) [%] | IC50 ([8]; Homo sapiens, 0.25 µM to 5 µM, 24 h, read-out: IC50 for toxic effects on HEL cells) [nM] |
| --- | --- | --- | --- | --- | --- | --- | --- | --- | --- | --- | --- | --- |
| Nc1ccccc1NC(=O)c1cnc(N2CCN(Cc3c[nH]c4ccccc34)CC2)cn1 [19f, 5-(4-((1H-indol-3-yl)methyl)piperazin-1-yl)-N-(2-aminophenyl)pyrazine-2-carboxamide] | > 20 | > 20 | 318 | 397 | ~300 | 4 | > 20 | 76.1 | triggered the expected accumulation of acetylated histone H3 dose-dependently and more potently than MS-275 did | 0 | 26 | 925 |
| Cn1cc(CCN2CCN(c3cnc(C(=O)Nc4cc(-c5cccs5)ccc4N)cn3)CC2)c2ccccc21 [21a, N-(2-Amino-5-(thiophen-2-yl)phenyl)-5-(4-(2-(1-methyl-1H-indol-3-yl)ethyl)piperazin-1-yl)pyrazine-2-carboxamide] | > 20 | > 20 | – | – | – | – | > 20 | 94.4 | – | – | – | – |
